Reference: patent US10525079B2, “Pharmaceutical composition for preventing or treating breast cancer including crystalline polymorph of tetraarsenic hexoxide, and method for producing same” (CHEMAS CO., LTD., priority 2016, dated 2020)

What was measured:
metastatic breast cancer = assay: Clinical test in a patient with metastatic breast cancer (CT images of the lungs); type: in vivo, human; conditions: oral 5 mg three times a day (15 mg/day), after 8, 13, 17 and 22 months of administration
Description: The following clinical test was conducted using the composition of Example 1.
The patient received hospital treatments and folk remedies since breast cancer was found in 2006, but the breast cancer was metastasized to the lungs, pleura, bones, and liver. In May 2014, pleural effusion and peritoneal fluid collection were found, and thus the pleural effusion was extracted several times. However, due to a severe difficulty in breathing caused by malignant pleural effusion, the patient breathed through an oxygen respiratory system in an emergency room and hospice medical ward. However, the patient began to develop pallor due to a lack of oxygen, and the patient, having about one week left to live, was orally administered with 5 mg of Example 1 three times a day (15 mg/day).
CT images of the patient before the administration of Example 1 and after 8, 13, 17 and 22 months of administration of Example 1 are shown in FIG. 6. Before the administration of Example 1, the airway was closed due to metastasis to the right lung and left lung, but after 8, 13, 17, and 22 months of administration, the sizes of the cancers in both of the lungs were decreased as the duration of administration increased.

caspase-3 = assay: RT-PCR mRNA expression of caspase-3 in MCF-7 cells; type: cell-based, human; conditions: 0-15 μM, 24 hours, with increase in concentration
Description: (§1) Fetal bovine serum (FBS) and cell culture medium were prepared (Hyclone). RT-PCR Kit and Trizol were obtained from Takara Biotechnology CO., LTD., and Annexin V-FITC was obtained from Shanghai Biyuntian Biological Technology Co., LTD. Primers were designed and synthesized by Beijing Aodingkangsheng Biological Technology Co., LTD.
(§2) Human breast cancer cells MCF-7, as a human cancer cell line, were obtained from the Shanghai Cell Bank of Chinese Academy of Sciences. MCF-7 cells were incubated in Minimum Essential media (MEM) supplemented with 10% FBS, 100 U/ml penicillin, and 100 μg/m streptomycin in a humidified incubator with 5% CO2 and 95% air. The media were exchanged every three days.
(§3) In order to investigate the effect of Example 1 on the induction of cell apoptosis, mRNA expression levels of caspase-3, p21, cyclin E1, and cyclin A2, which are genes involved in cell cycle and apoptosis, were examined by RT-PCR. The cells were dispensed at 1×10^5 cells/well in a 6-well culture dish, and incubated for 24 hours. After 24 hours, the cells contained in the MEM containing 10% FBS were treated with Example 1 at 0, 1, 3, 6, 9, 12 or 15 μM, and incubated for 24 hours. After 24 hours, the cells were collected, and then RNA was extracted using Trizol reagent. […]

[1] = tested on: human breast cancer cells MCF-7; assay: Cell proliferation assay (MTT assay), MCF-7 cells; type: cell-based
Description: (§4) Fetal bovine serum (FBS) and cell culture medium were prepared (Hyclone), and dimethyl sulfoxide (DMSO) and 3-(4,5-dimetyl-thiazol-2yl)-2,5-diphenyltetrazolium bromide (MTT, Amresco LLC, USC) were prepared.
(§5) As human cancer cell lines, human breast cancer cells MCF-7 and SK-BR-3 were obtained from the Shanghai Cell Bank of Chinese Academy of Sciences. The MCF-7 cells were incubated in Minimum Essential Media (MEM) supplemented with 10% FBS, 100 U/ml penicillin, and 100 μg/ml streptomycin and the SK-BR-3 cells were incubated in Dulbecco's modified Eagle's medium (DMEM) supplemented with 10% FBS, 100 U/ml penicillin, and 100 μg/ml streptomycin in a humidified incubator with 5% CO2 and 95% air. The media were exchanged every three days.
(§6) The effects of Example 1 and Comparative Examples 1 to 3 on cell proliferation were assessed using MTT assay. MTT assay is based on the ability of viable cells against MTT to produce insoluble dark blue formazan products. After the cells were suspended in the medium by trypsin treatment and collected, the cells were dispensed at a density of 4×10^3 cells/well in a 96-well culture dish (Costar, Cambridge, Mass., USA). […] All the crystals were completely dissolved by standing at room temperature for 15 minutes, and the absorbance was measured using a micro-plate reader at a wavelength of 570 nm (A570 nm).
(§7) The absorbance value of the control group treated without the sample was calculated as 100, and the absorbance value of the treatment group treated with the sample, compared with that of the control group, was calibrated, and the percentage of inhibition of cell proliferation was calculated according to the following equation. Percentage (%) of inhibition of cell proliferation=((mean absorbance of control group cells−mean absorbance of treatment group cells)/mean absorbance of control group cells)×100
(§8) All data were expressed as mean±standard error of the mean (mean±SEM). […]

[2] = tested on: human breast cancer cells SK-BR-3; assay: Cell proliferation assay (MTT assay), SK-BR-3 cells; type: cell-based
Description: as §4, §5, §6, §7, §8

cyclin E1 = assay: RT-PCR mRNA expression of cyclin E1 in MCF-7 cells; type: cell-based, human; conditions: 0-15 μM, 24 hours, with increase in concentration
Description: as §1, §2, §3

cyclin A2 = assay: RT-PCR mRNA expression of cyclin A2 in MCF-7 cells; type: cell-based, human; conditions: 0-15 μM, 24 hours, with increase in concentration
Description: as §1, §2, §3

[3] = tested on: human breast cancer cells MCF-7; assay: Induction of cell apoptosis by flow cytometry (Annexin V-FITC / PI); type: cell-based; conditions: MCF-7 cells, 0, 1, 3, 6, 9, 12 or 15 μM, 24 hours; with increase in treatment concentration
Description: as §1, §2
The effect of Example 1 on the induction of cell apoptosis was assessed by flow cytometry. The cells were dispensed at 1×10^5 cells/well in a 6-well culture dish, and incubated for 24 hours. After 24 hours, the cells contained in the MEM containing 10% FBS were treated with Example 1 at 0, 1, 3, 6, 9, 12 or 15 μM, and incubated for 24 hours. After 24 hours, the cells were treated using Annexin V-FITC kit to check cell apoptosis, and also treated with propidium iodide (PI) for distinguishment from natural cell death. […] The cells treated with the Annexin V-FITC kit were analyzed for the degree of cell apoptosis by using the BD FACS calibur flow cytometry system. […]

p21 = assay: RT-PCR mRNA expression of p21 in MCF-7 cells; type: cell-based, human; conditions: 0-15 μM, 24 hours, with increase in concentration
Description: as §1, §2, §3

[4] = tested on: human breast cancer cells, MDA-MB-231; assay: Breast cancer metastasis inhibitory effect in nude mice transplanted with MDA-MB-231; type: in vivo, babl/c-nu male nude mice; conditions: MDA-MB-231 subcutaneous, oral 4.5 mg/kg for 7 days; for percentage of inhibition of cancer cell metastasis: cancer cells spread to the lungs counted; for spreading of the breast cancer cells to the lungs: versus untreated control
Description: The nude mice were allowed free access to food and water, and were bred in a 12-hr light/12-hr dark cycle for 7 days.
The mice were transplanted with human breast cancer cells, MDA-MB-231, through subcutaneous injection, and bred for 7 days. After 7 days, the mice were randomly divided, and then respective mice were orally administered with the compositions of Example 1 and Comparative Example 1 at 4.5 mg/kg for 7 days. Here, the mice treated with nothing after the transplantation of breast cancer cells were used as a control group. After 7 days of administration of the compositions, lung tissues were taken from the mice, and then cancer cells spread to the lungs were counted to compare the degree of inhibition of breast cancer metastasis.

[5] = compared with Comparative Example 2 or 3 (Example 1 and Comparative Example 1 mixed at 4:1 or 1:1)

| Compound | sizes of the cancers in both of the lungs (CT images) (metastatic breast cancer) | mRNA expression of caspase-3 (caspase-3) | percentage of inhibition of MCF-7 cell proliferation [1, 5] | percentage of inhibition of MCF-7 cell proliferation ([1]; incubation 48 hours (FIG. 2A), compared with Comparative Example 1, 0-80 μM) | percentage of inhibition of MCF-7 cell proliferation ([1]; incubation 72 hours (FIG. 2B), compared with Comparative Example 1, 0-80 μM) | percentage of inhibition of SK-BR-3 cell proliferation [2, 5] | percentage of inhibition of SK-BR-3 cell proliferation ([2]; incubation 48 hours (FIG. 3A), compared with Comparative Example 1, 0-80 μM) | percentage of inhibition of SK-BR-3 cell proliferation ([2]; incubation 72 hours (FIG. 3B), compared with Comparative Example 1, 0-80 μM) | mRNA expression of cyclin E1 (cyclin E1) | mRNA expression of cyclin A2 (cyclin A2) | cell apoptosis (annexin V compared with PI) [3] | mRNA expression of p21 (p21) | percentage of inhibition of cancer cell metastasis [4] [%] | spreading of the breast cancer cells to the lungs [4] |
| --- | --- | --- | --- | --- | --- | --- | --- | --- | --- | --- | --- | --- | --- | --- |
| tetraarsenic hexoxide [Example 1] | decreased | increased | higher | higher | higher | higher | higher | higher | increased | decreased | increased | increased | ≥ 90 | inhibited |
| O1[As]2O[As]3O[As]1O[As](O2)O3 [Comparative Example 1, tetraarsenic hexoxide] |  |  |  |  |  |  |  |  |  |  |  |  | 50 | inhibited |
